Patent US7408026B1, “Synthesis of proteins by native chemical ligation” (The Scripps Research Institute, priority 1998, dated 2008)

Tested on: neutrophil elastase release
Test: assay for neutrophil elastase release (titration)
Format: cell-based
Conditions: compared with conventionally synthesized molecule and native sequence IL-8
From the text: Application of the native chemical ligation method to the total synthesis of a protein molecule was illustrated by the preparation of human interleukin 8 (IL-8). (M. Baggiolini, et al., FEBS Lett. (1989): vol. 307, p 97; I. Clark-Lewis, et al., J. Biol. Chem. (1994): vol. 269, p 16075 (1994); I. Clark-Lewis, Biochemistry (1991): vol. 30, p 3128; and K. Rajarathnam, et al., (1994): Biochemistry, (1994): vol. 29, p 1689.) The 72 amino acid polypeptide chain contains four Cys residues, which form two functionally critical disulfide bridges in the native protein molecule. The two unprotected synthetic peptide segments reacted cleanly to give the full length polypeptide chain in reduced form without further chemical manipulation (9). This successful ligation was particularly significant because the 33- and 39-residue IL-8 segments each contained two Cys residues, and together encompassed 18 of the 20 genetically encoded amino acids found in proteins. The purified product was folded and oxidized as previously described, to give IL-8 with a mass precisely 4 daltons less than that of the original ligation product, indicating the formation of two disulfide bonds. The properties of this folded product were identical to those of previously studied authentic IL-8 samples.

Substance	maximal response in neutrophil elastase release
[Ala33]IL-8: 72 amino acid human interleukin 8 analogue made by native chemical ligation of IL-8(1-33)αCOSBn and IL-8(34-72), then folded by air oxidation	indistinguishable and identical to native sequence IL-8
corresponding molecule obtained by conventional synthesis: [Ala33]IL-8 obtained by conventional synthesis, used as comparator	indistinguishable and identical to native sequence IL-8
